“Also recorded” adds a separate entry of the source. Residues, ends and D or L forms follow the SMILES beside them. *: point of attachment. Cbz = O=C(OCc1ccccc1)*; CH2F = FC*
Experiments:
MC38 cells [1] = test: TNFα-induced killing of MC38 cells, cell viability (CCK-8); type: cell-based, mouse; settings: for TNFα-mediated killing in Rb1cc1 KO cells: Rb1cc1 KO MC38 cells, 25 μM z-VAD-FMK or 50 μM Nec-1
Experimental: (§1) The effects of TNFα, TRAIL, doxorubicin or paclitaxel on cell viability were assessed following 24 hour incubations at the indicated concentrations. The effects of 5 μM autophinib or SAR-405 on TNFα (10 ng/ml) or TRAIL (10 ng/ml or 50 ng/ml) induced killing were assessed following 24 hour incubations unless otherwise indicated. In all cases, cell viability was measured using CCK8 cell counting kit-8 (CCK-8) reagent, which is reduced by dehydrogenase activities in cells to give a yellow-colored formazan dye (Dojindo). The absorbance was measured using a SpectraMax M3 microplate reader (Molecular Devices).

[2] = test system: HCT-116 and HeLa human cancer cells; test: TNFα- and TRAIL-mediated killing of human cancer cells with or without autophinib, cell viability; type: cell-based; settings: 5 μM autophinib, 24 hours
Experimental: as §1

[3] = test system: ZR-75-1 human breast cancer cells; test: Western blots of ZR-75-1 cells (p62, caspase-8); type: cell-based; settings: 5 μM inhibitor, 16 hours; for p62 levels: ZR-75-1 cells; for TNFα-induced activation of caspase-8: human breast cancer cells ZR-75-1, 10 ng/ml TNFα
Experimental: (§2) Whole cell lysates were prepared in tris-glycine SDS sample buffer (ThermoFisher) containing 5% 2-mercaptoethanol. Western blotting was performed by conventional techniques using tris-glycine polyacrylamide SDS gels (ThermoFisher) and PVDF membranes (BioRad). Blots were blocked in 5% milk powder and 0.5% Tween-20 in TBS and then incubated overnight with primary antibodies. After addition of secondary antibodies, membranes were incubated with SuperSignal West Pico Plus or Femto substrate (ThermoFisher) and luminescence was captured with a C300 imager (Azure Biosystems). Primary antibodies against TAK1, Rbck1, Re1A p65, Rb1cc1, Atg12, cleaved caspase-8, procaspase-8, RIPK1, RIPK1 phospo-Ser321, RIPK1 phospho-Ser166, Iκ-Bα, A20, p62, phospho-p65, LC3B, TNFR1 (CST), Atg9a (Novus), cIAP1 (Enzo), β2M (ThermoFisher), FADD and ICAM (Abcam) were used. Horseradish peroxidase-conjugated β-Actin antibody and secondary antibodies against mouse IgG, rabbit IgG and goat IgG were from Santa Cruz Biotechnology.

MC38 cells [4] = test: Western blots of MC38 cell lysates (caspase-8, p62, Iκ-Bα, phospho-S6); type: cell-based, mouse; settings: 5 μM autophinib
Experimental: as §2

[5] = test system: multiple mouse and human cancer cell lines; test: TNFα-mediated killing in a panel of cancer cell lines with or without autophagy inhibitor; type: cell-based; settings: 10 ng/ml TNFα, 5 μM inhibitor, 24 hours, EMT6, LL/2, CT26, Colon26, BT-20, Me-180, MDA-MB-361, ZR-75-1
Experimental: as §1

[6] = test system: HCT-116 and HeLa human cancer cells; test: Western blots of HCT-116 and HeLa cells after TRAIL with or without autophinib; type: cell-based; settings: human cancer cells (HCT-116, HeLa), 10 or 50 ng/ml TRAIL, 24 hours
Experimental: as §2

[7] = test system: ZR-75-1 human breast cancer cells; test: CD3 bispecific antibody-induced killing of ZR-75-1 cells by human T cells; type: cell-based; settings: 12 ng/ml bispecific antibody, 5 μM SAR-405, 24 hours
Text: CD8^+ T cells were isolated from spleens and lymph nodes of 6-8 week old male OT-1 mice. These mice contain transgenic inserts for mouse Tcra-V2 and Tcrb-V5 genes. The transgenic T cell receptor was designed to recognize ovalbumin peptide residues 257-264 in the context of H-2Kb MHC class I protein. In some experiments, human CD8+ T cells were isolated from PBMCs. T cells were activated in vitro with CD3/CD28 beads at a 1:2 bead:cell ratio for 2-3 days. T cells were activated in RPMI-1640 medium containing 20 ng/ml mouse IL-2, 10% heat inactivated fetal bovine serum, 20 mM HEPES, 2 mM L-glutamine, 1 mM sodium pyruvate, 0.05 mM 2-mercaptoethanol and 50 U/ml penicillin/streptomycin. For human tumor cell killing experiments using CD3 bispecific antibody, human T cells were isolated from peripheral blood mononuclear cells (PBMCs) (ReachBio) using Dynabeads Untouched Human T Cells Kit (Thermo Fisher Scientific).
Human ZR-75-1 cells were seeded at 100,000 cells per 24 well. After 24 hours, cells were incubated with activated CD8^+ T cells (isolated from human PBMCs) at the indicated E:T ratios for 24 hours in the presence of 12 ng/ml breast tumor antigen×CD3 or control (doesn't bind to ZR-75-1 cells) bispecific antibodies in the absence or presence of 5 μM autophagy inhibitor SAR-405.

[8] = test system: CT26, B16F10, 4T1, EMT6, MC38 tumor cell lines; test: TNFα-induced caspase-8 activation and apoptosis in a panel of tumor cell lines; type: cell-based, mouse; settings: 24 hours
Experimental: as §1
Whole cell lysates were prepared in tris-glycine SDS sample buffer (ThermoFisher) containing 5% 2-mercaptoethanol. Western blotting was performed by conventional techniques using tris-glycine polyacrylamide SDS gels (ThermoFisher) and PVDF membranes (BioRad). Blots were blocked in 5% milk powder and 0.5% Tween-20 in TBS and then incubated overnight with primary antibodies. After addition of secondary antibodies, membranes were incubated with SuperSignal West Pico Plus or Femto substrate (ThermoFisher) and luminescence was captured with a C300 imager (Azure Biosystems). […]

Cc1cc(Nc2cc(Cl)nc(Oc3ccc([N+](=O)[O-])cc3)n2)n[nH]1 [autophinib]
TNFα-mediated killing (relative cell viability) (MC38 cells [1]; MC38 cells, 10 ng/ml TNFα, 5 μM autophinib, 16 hours): increased
sensitization to TNFα- and TRAIL-mediated killing ([2]; HCT-116 (10 ng/ml TNFα or TRAIL), HeLa (50 ng/ml TRAIL)): sensitizes
induction of apoptosis by TRAIL ([2]; human cancer cells (HCT-116, HeLa), 10 or 50 ng/ml TRAIL): increased
p62 levels [3]: significantly increased
TNFα-induced activation of caspase-8 [3]: enhanced
TNFα-mediated degradation of Iκ-Bα (MC38 cells [4]; 10 ng/ml TNFα 30 minutes): did not affect
TNFα-mediated caspase-8 activation (MC38 cells [4]; 10 ng/ml TNFα 4 hours): increased
levels of p62 (MC38 cells [4]; 4 hours): significantly increased
killing by TNFα in multiple mouse and human cancer cell lines [5]: significantly increased; also recorded: sensitizes
activation of caspase-8 by TRAIL [6]: increased

C[C@@H]1COCCN1c1cc(=O)n2c(n1)N(Cc1cncc(Cl)c1)[C@H](C(F)(F)F)CC2 [SAR405]
p62 levels [3]: significantly increased
TNFα-induced activation of caspase-8 [3]: enhanced
killing by TNFα in multiple mouse and human cancer cell lines [5]: significantly increased
killing by TNFα in multiple mouse and human cancer cell lines ([5]; listed as SAR-405): sensitizes
tumor cell killing by human T cells with breast tumor antigen×CD3 bispecific antibody [7]: significantly increased

COC(=O)C[C@H](NC(=O)[C@H](C)NC(=O)[C@@H](NC(=O)OCc1ccccc1)C(C)C)C(=O)CF [z-VAD-FMK] (Cbz-Val-Ala-Asp(OMe)-CH2F)
TNFα killing of MC38 cells in presence of caspase inhibitor (MC38 cells [1]; 25 μM z-VAD-FMK, 10 ng/ml TNFα, 24 hours): blocked
TNFα-mediated killing in Rb1cc1 KO cells (MC38 cells [1]; 24 hours): blocked

CN1C(=O)C(Cc2c[nH]c3ccccc23)NC1=S (stereo not drawn) [necropsis inhibitor]
TNFα-mediated killing in Rb1cc1 KO cells (MC38 cells [1]; 24 hours): had no effect

B1: TNFα: Recombinant mouse and human TNFα from PeproTech (protein)
chain: LRSSSQNSSDKPVAHVVANHQVEEQLEWLSQRANALLANGMDLKDNQLVVPADGLYLVYSQVLFKGQGCPDYVLLTHTVSRFAISYQEKVNLLSAVKSPCPKDTPEGAELKPWYEPIYLGGVFQLEKGDQLSAEVNLPKYLDFAESGQVYFGVIAL
MC38 cell death by soluble TNFα (MC38 cells [1]; 10 ng/ml TNFα, 24 hours): promoted MC38 cell death
killing by TNFα ([8]; CT26, B16F10, 4T1 cells): not killed
TNFα-induced caspase-8 activation and apoptosis ([8]; EMT6 and MC38 cells): exhibited TNFα-induced caspase-8 activation and apoptosis

Source: patent US11965161B2, “Methods and compositions for sensitization of tumor cells to immune therapy” (Regeneron Pharmaceuticals, Inc., priority 2020, dated 2024)
